Where no end group is shown, it is not given here.
Tested on: anti-CD28 scFv
Experiment: Panning ELISA of clonal phage, anti-CD28 scFv, with or without CD28 soluble protein (Peptide-9 library)
Type: binding
Settings: Peptide-9 library, background (no anti-CD28 scFv)
Protocol: Clonal phage were harvested as crude supernatants and screened via standard enzyme linked immunosorbent assays (ELISAs). […] Prior to the addition of clonal phage, wells were incubated with blocking buffer and CD28 soluble protein or blocking buffer alone. Without washing or aspirating, clonal phage supernatants were then added to the wells and incubated for a short time. Wells were then washed followed by detection of bound phage using a horse radish peroxidase conjugated anti-M13 antibody. Clonal phage of interest were then sent for sequence analysis.

Sequence of anti-CD28 scFv (as listed by the source): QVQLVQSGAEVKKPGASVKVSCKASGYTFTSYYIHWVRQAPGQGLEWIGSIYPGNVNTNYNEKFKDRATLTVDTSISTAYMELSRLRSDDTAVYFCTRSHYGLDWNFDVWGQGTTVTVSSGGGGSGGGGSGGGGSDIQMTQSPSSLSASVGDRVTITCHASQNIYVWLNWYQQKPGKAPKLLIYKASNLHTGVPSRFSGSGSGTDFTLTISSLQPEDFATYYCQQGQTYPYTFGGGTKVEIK

Compared with Phage-450 (EDWCPTDVWPYCFS), Phage-438 (MDWCPMSRWAFCFD) is lower in Background signal: 0.100 for the first, 0.071 for the second.

Going from Phage-124 (MDWCPRPLWDMCFF) to Phage-112 (MHWCPRALWDVCYN), the Background signal rises from 0.063 to 0.077.

Compared with “Phage-51 (MDWCPMDLWDYCFN; not fully specified; cysteine pairing not given here)”, Phage-118 (MDWCPRHLWDECFF) is higher in Background signal: 0.071 for the first, 0.074 for the second.

Compared with Phage-452 (MDWCPRDWWHMCFN), Phage-439 (MDWCPRDRWDVCFA) is lower in Background signal: 0.100 for the first, 0.073 for the second.

Compared with Phage-128 (MDWCPRDLWIECFF), Phage-411 (MSWCPRFMWHECFN) is lower in Background signal: 0.084 for the first, 0.081 for the second.

First: Phage-46 (MHWCPIDLWAECYA; not fully specified; cysteine pairing not given here)
Second: Phage-451 (MDWCPRFWWHECYA)
The Background signal of the first is lower: 0.082 for the first, 0.246 for the second.

Going from Phage-433 (MAWCPWAQFDECLA) to Phage-111 (MDWCPFYLWNECFY), the Background signal rises from 0.073 to 0.099.

Going from Phage-122 (MDWCPRDLWDQCYA) to “Phage-45 (MDWCPRPLWHECFS; not fully specified; cysteine pairing not given here)”, the Background signal rises from 0.059 to 0.078.

First: Phage-422 (MYWCPINMWDYCYA)
Second: Phage-120 (MDWCPRDLWHACFS)
The Background signal of the first is higher: 0.122 for the first, 0.074 for the second.

First: Phage-94 (MDWCPRDLWSLCFY)
Second: Phage-402 (MDWCPRHMWHECFH)
The Background signal of the first is lower: 0.065 for the first, 0.067 for the second.

Going from Phage-136 (MHWCPIYLWDECFN) to Phage-418 (MYWCPKYMWSECFA), the Background signal rises from 0.071 to 0.072.

Compared with Phage-408 (MFWCPKDMWAECFA), Phage-430 (IHLCHWVPWIKCSH) is higher in Background signal: 0.099 for the first, 2.516 for the second.

First: Phage-130 (MDWCPRYLWDACFF)
Second: Phage-61 (MVSCPTTMWNRCFN; left off: large carriers)
The Background signal of the first is lower: 0.066 for the first, 0.079 for the second.

Compared with Phage-443 (MDWCPMTRWNDCYF), “Phage-56 (MHWCPMDQWSNCFN; left off: large carriers)” is lower in Background signal: 0.081 for the first, 0.062 for the second.

Compared with Phage-123 (MDWCPIHLWNECFA), Phage-425 (MDLCPTAMWNRCFY) is lower in Background signal: 0.104 for the first, 0.063 for the second.

Compared with “Phage-44 (MDWCPIALWAECFN; not fully specified; cysteine pairing not given here)”, Phage-409 (LHWCPITMWTYCYY) is higher in Background signal: 0.111 for the first, 0.229 for the second.

Compared with Phage-434 (IVWCPTTQWNRCAT), Phage-137 (MDWCPRYLWHECFH) is lower in Background signal: 0.113 for the first, 0.101 for the second.

First: Phage-419 (VDWCPAHMWNECYN)
Second: Phage-49 (MSWCPIHLWNECFN; not fully specified; cysteine pairing not given here)
The Background signal of the first is higher: 0.208 for the first, 0.083 for the second.

Going from Phage-110 (MDWCPRYLWDECFN) to “Phage-57 (MDWCPRHRWVDCFY; left off: large carriers)”, the Background signal rises from 0.069 to 0.073.

Compared with Phage-414 (LYWCPRDMWAYCYS), “Phage-55 (QDWCPRHMWSFCFH; not fully specified; cysteine pairing not given here)” is higher in Background signal: 0.068 for the first, 0.138 for the second.

First: Phage-138 (MDWCPTNLWHECFA)
Second: Phage-52 (MDWCPINLWDECFS; not fully specified; cysteine pairing not given here)
The Background signal of the first is lower: 0.061 for the first, 0.062 for the second.

Compared with Phage-98 (MDWCPKYLWDVCFN), Phage-116 (MDWCPRDLWYACFA) is lower in Background signal: 0.096 for the first, 0.072 for the second.

First: Phage-50 (MDWCPPYLWNVCFS; not fully specified; cysteine pairing not given here)
Second: Phage-115 (MDWCPRYLWHECFN)
The Background signal of the first is lower: 0.063 for the first, 0.105 for the second.

With “Phage-47 (MAWCPVYLWHECFN; not fully specified; cysteine pairing not given here)” the Background signal was 0.094.

Same assay, conditions: background (no anti-CD28 scFv)

Compared with Phage-376 (MDWCPRHLWTYCFH), Phage-322 (MDWCPRHLWIECFN) is higher in Background signal: 0.109 for the first, 0.339 for the second.

Compared with Phage-306 (MDWCPRHLWNECFA), Phage-352 (MDWCPIHLWYECFN) is higher in Background signal: 0.068 for the first, 0.080 for the second.

Going from Phage-362 (MDWCPRILWHECFS) to Phage-397 (MDWCPRAMWDYCFY), the Background signal rises from 0.064 to 0.123.

Compared with Phage-377 (MDWCPFDLWLECFN), Phage-299 (MDWCPIYLWAECFN) is lower in Background signal: 0.087 for the first, 0.078 for the second.

Compared with Phage-363 (MNWCPMHLWAECFN), Phage-294 (MDWCPRSLWDYCFA) is higher in Background signal: 0.087 for the first, 0.115 for the second.

Going from Phage-343 (MDWCPRDLWTQCFF) to Phage-328 (MDWCPRALWDHCFN), the Background signal rises from 0.065 to 0.323.

First: Phage-325 (MDWCPAYLWDECFA)
Second: Phage-366 (MHWCPLYLWDECFY)
The Background signal of the first is lower: 0.096 for the first, 0.153 for the second.

Going from “Phage-273 (IDWCPTAGWTYCWF; not fully specified; cysteine pairing not given here)” to Phage-336 (MDWCPRDLWNWCFN), the Background signal rises from 0.071 to 0.139.

First: Phage-269 (DSFCTWSAWQECGR; not fully specified; cysteine pairing not given here)
Second: Phage-293 (MDWCPRHLWFECFN)
The Background signal of the first is higher: 0.072 for the first, 0.064 for the second.

Going from Phage-378 (MHWCPLHLWNECFA) to Phage-288 (MDWCPIALWDFCFA), the Background signal rises from 0.065 to 0.073.

Going from Phage-304 (MDWCPKFLWDECFA) to Phage-317 (MDWCPRHLWHECFT), the Background signal falls from 0.311 to 0.103.

Compared with Phage-290 (MDWCPRDLWSVCFS), Phage-382 (ITWCPTSLWNRCLV) is lower in Background signal: 0.090 for the first, 0.077 for the second.

First: Phage-354 (MDWCPRYLWLECFN)
Second: Phage-272 (MVWCMSVGWAVCLN; cysteine pairing not given here; also: large carriers left off)
The Background signal of the first is lower: 0.083 for the first, 0.289 for the second.

Going from Phage-283 (MDWCPRHLWNECFN) to Phage-332 (IDWCPRALWDACLA), the Background signal rises from 0.079 to 0.269.

Going from Phage-365 (MDWCPSYLWPVCFN) to Phage-370 (MTWCPAYLWHECFN), the Background signal rises from 0.079 to 0.086.

Going from Phage-331 (MDWCPRHLWDECFY) to “Phage-279 (MDWCPRYLWAECFN; not fully specified; cysteine pairing not given here)”, the Background signal falls from 0.098 to 0.068.

First: Phage-351 (MDWCPMNLWHECFA)
Second: Phage-307 (MDWCPRYLWPVCFH)
The Background signal of the first is lower: 0.080 for the first, 0.179 for the second.

First: Phage-282 (MDWCPRDLWFACFA)
Second: Phage-271 (MDWCPTSFWNRCFH; not fully specified; cysteine pairing not given here; also: large carriers left off)
The Background signal of the first is lower: 0.060 for the first, 0.102 for the second.

Going from Phage-302 (MDWCPRYLWHVCFD) to Phage-341 (MDWCPRHLWDECFN), the Background signal rises from 0.068 to 0.084.

Compared with Phage-292 (MDWCPRALWDHCFF), Phage-386 (NHWCPTTLWNRCVA) is higher in Background signal: 0.081 for the first, 0.293 for the second.

Compared with Phage-309 (MDWCPMFLWHECFN), “Phage-270 (MDWCPRDFWAFCFF; cysteine pairing not given here; also: large carriers left off)” is lower in Background signal: 0.170 for the first, 0.118 for the second.

First: Phage-308 (MDWCPKSLWAECFN)
Second: Phage-335 (MDWCPRFLWDYCFA)
The Background signal of the first is higher: 0.395 for the first, 0.146 for the second.

Going from Phage-399 (MDWCPRSMWDSCFN) to Phage-381 (MAWCPRILWHQCFN), the Background signal falls from 0.332 to 0.113.

First: Phage-315 (MDWCPTYLWHVCFS)
Second: Phage-384 (IMWCPTSLWNRCVT)
The Background signal of the first is lower: 0.089 for the first, 0.104 for the second.

Going from Phage-303 (MDWCPRYLWTECFS) to “Phage-274 (WVSCLRHHWLECFH; not fully specified; cysteine pairing not given here)”, the Background signal rises from 0.074 to 0.781.

First: Phage-380 (MDYCPSYLWHECFA)
Second: Phage-391 (MDWCPFDMWADCFF)
The Background signal of the first is higher: 0.065 for the first, 0.063 for the second.

Compared with Phage-329 (MDWCPRALWNVCFA), Phage-323 (MDWCPTYLWNVCFA) is higher in Background signal: 0.071 for the first, 0.085 for the second.

Compared with Phage-388 (MDWCPRFMWNFCFF), Phage-337 (MDWCPKPLWHVCFA) is lower in Background signal: 2.200 for the first, 0.069 for the second.

First: Phage-361 (MHWCPRHLWSECFN)
Second: Phage-281 (MDWCPRSLWFLCFN)
The Background signal of the first is lower: 0.165 for the first, 1.110 for the second.

First: Phage-356 (MDWCPMYLWDECFF)
Second: Phage-280 (MDWCPRYLWDYCFA)
The Background signal of the first is higher: 0.082 for the first, 0.073 for the second.

First: Phage-319 (MSWCPRDLWHLCFF)
Second: Phage-372 (MDWCPRYLWVDCFA)
The Background signal of the first is lower: 0.077 for the first, 0.095 for the second.

Going from Phage-314 (MDWCPIHLWNECFN) to Phage-344 (MDWCPRHLWVHCFS), the Background signal rises from 0.074 to 0.096.

For Phage-383 (LAGCQRDLATVCVI), the Background signal was 0.068.

Same assay, conditions: binding to anti-CD28 scFv in presence of CD28 soluble protein

With “Phage-273 (IDWCPTAGWTYCWF; not fully specified; cysteine pairing not given here)” the “CD28 scFv signal in presence of CD28” value was 0.075.

From patent US20260242478A1, “ANTIBODIES FOR TARGETING PSMA AND CD28 AND USES THEREOF” (Janux Therapeutics, Inc., priority 2023, published 2026)
